# Source: patent US20250275991A1, “ORAL COMPLEMENT FACTOR D INHIBITORS” (BioCryst Pharmaceuticals, Inc, priority 2019, published 2025)
# Biological target: Factor D (Homo sapiens, UniProt P00746)
# Assay: Factor D esterolytic assay
# Format: biochemical
# Conditions: substrate Z-Lys-SBzl 1.29 mM, 100 mM HEPES, 500 mM NaCl, pH 7.5, 10% DMSO, tested a minimum of three times
# How it was run: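 Human Factor D esterolytic assay in 100 mM HEPES, 500 mM NaCl, pH 7.5, 10% DMSO, with 1.29 mM Z-Lys-SBzl substrate. Released thiol detected with DTNB at 405 nm over 600 s, minus 690 nm background. Substrate added immediately or after room-temperature preincubation with compound. IC50 from percent inhibition relative to enzyme alone; ≥3 tests.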
# Chain of Factor D (P00746 26-253): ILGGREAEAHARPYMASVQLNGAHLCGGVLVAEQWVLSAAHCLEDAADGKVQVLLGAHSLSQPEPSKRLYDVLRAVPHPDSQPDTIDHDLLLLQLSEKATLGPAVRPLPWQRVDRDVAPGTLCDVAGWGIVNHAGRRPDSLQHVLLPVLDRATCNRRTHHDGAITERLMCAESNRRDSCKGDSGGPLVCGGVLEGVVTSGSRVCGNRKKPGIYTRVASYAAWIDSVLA
row,Structure (SMILES),IC50
1,"CC(=O)c1ccc(CC(=O)O)c(OCc2cc(-c3ccnc(CN)c3)c3oc(F)cc3c2)c1 [Compound 74d, 2-(4-acetyl-2-((7-(2-(aminomethyl)pyridin-4-yl)-2-fluorobenzofuran-5-yl)methoxy)phenyl)acetic acid]",< 1000 nM
2,"CC(=O)c1ccc(CC(=O)O)c(OCc2cc(-c3ccnc(CN)c3F)c3oc(F)cc3c2)c1 [Compound 75d, 2-(4-acetyl-2-((7-(2-(aminomethyl)-3-fluoropyridin-4-yl)-2-fluorobenzofuran-5-yl)methoxy)phenyl)acetic acid]",< 1000 nM
3,"CC(=O)c1ccc(CC(=O)O)c(OCc2cc(-c3cccc(CN)c3F)c3oc(F)cc3c2)c1 [Compound 76e, 2-(4-acetyl-2-((7-(3-(aminomethyl)-2-fluorophenyl)-2-fluorobenzofuran-5-yl)methoxy)phenyl)acetic acid]",< 1000 nM
4,"CC(Oc1ccccc1CC(=O)O)c1cc(-c2cccc(CN)c2)c2occc2c1 (stereo not shown) [Compound 77e, 2-(2-(1-(7-(3-(aminomethyl)phenyl)benzofuran-5-yl)ethoxy)phenyl)acetic acid]",< 1000 nM
5,"Cn1cc(-c2c(COc3ccccc3CC(=O)O)cc(-c3cccc(CN)c3)c3occc23)cn1 [Compound 78e, 2-(2-((7-(3-(aminomethyl)phenyl)-4-(1-methyl-1H-pyrazol-4-yl)benzofuran-5-yl)methoxy)phenyl)acetic acid]",< 1000 nM
6,"Cn1ccc(COc2c(COc3ccccc3CC(=O)O)cc(-c3cccc(CN)c3)c3occc23)n1 [Compound 79g, 2-(2-((7-(3-(aminomethyl)phenyl)-4-((1-methyl-1H-pyrazol-3-yl)methoxy)benzofuran-5-yl)methoxy)phenyl)acetic acid]",< 1000 nM
7,"NCc1cccc(-c2cc(COc3ccccc3CC(=O)O)c(OCc3ccncc3)c3ccoc23)c1 [Compound 80g, 2-(2-((7-(3-(aminomethyl)phenyl)-4-(pyridin-4-ylmethoxy)benzofuran-5-yl)methoxy)phenyl)acetic acid]",< 1000 nM
8,"COCOc1c(COc2ccccc2CC(=O)O)cc(-c2cccc(CN)c2)c2occc12 [Compound 81h, 2-(2-((7-(3-(aminomethyl)phenyl)-4-(methoxymethoxy)benzofuran-5-yl)methoxy)phenyl)acetic acid]",< 1000 nM
9,"NCc1ccc(-c2nc(C(=O)Nc3ccccc3CC(=O)O)c3cccn3n2)cc1 [Compound 82g, 2-(2-(2-(4-(aminomethyl)phenyl)pyrrolo[2,1-f][1,2,4]triazine-4-carboxamido)phenyl)acetic acid]",> 10000 nM
10,"NCc1cccc(-c2cc(COc3ccccc3)cc3ccoc23)c1 [Compound 83b, (3-(5-(phenoxymethyl)benzofuran-7-yl)phenyl)methanamine]",> 10000 nM
11,"NC(=O)c1cc(-c2cc(COc3ccccc3CC(=O)O)cc3ccoc23)cs1 [Compound 84c, 2-(2-((7-(5-carbamoylthiophen-3-yl)benzofuran-5-yl)methoxy)phenyl)acetic acid]",> 10000 nM

# More lines, now with the values ahead:
row,IC50,Structure (SMILES)
1,< 1000 nM,"NCc1cccc(-c2cc(COc3ccccc3CC(=O)O)c(OCC3CCCO3)c3ccoc23)c1 (stereo not shown) [Compound 69g, 2-(2-((7-(3-(aminomethyl)phenyl)-4-((tetrahydrofuran-2-yl)methoxy)benzofuran-5-yl)methoxy)phenyl)acetic acid]"
2,< 1000 nM,CC(C)C(=O)Nc1ccc(CC(=O)O)c(OCc2cc(-c3cccc(CN)c3)c3occc3c2)c1 [Compound 70f]
3,< 1000 nM,"NCc1cccc(-c2cc(C(=O)Nc3ccccc3CC(=O)O)cc3c2ccn3-c2ccccc2)c1 [Compound 71e, 2-(2-(4-(3-(aminomethyl)phenyl)-1-phenyl-1H-indole-6-carboxamido)phenyl)acetic acid]"
4,< 1000 nM,"CC(O)c1ccc(CC(=O)O)c(OCc2cc(-c3cccc(CN)c3)c3occc3c2)c1 (stereo not shown) [Compound 72e, 2-(2-((7-(3-(aminomethyl)phenyl)benzofuran-5-yl)methoxy)-4-(1-hydroxyethyl)phenyl)acetic acid]"
5,< 1000 nM,"NCc1cc(-c2cc(COc3ccc(F)cc3CC(=O)O)cc3cc(F)oc23)ccn1 [Compound 73c, 2-(2-((7-(2-(aminomethyl)pyridin-4-yl)-2-fluorobenzofuran-5-yl)methoxy)-5-fluorophenyl)acetic acid]"
